# Experimental data reported in the PolyMetriX glass transition set.
# ± gives the standard deviation of the reports.
row,Compound,glass transition temperature [°C]
1,*Oc1ccc(C(CC)(c2ccccc2)c2ccc(OC(*)=S)cc2)cc1 (repeat unit),173.00
2,*c1ccc(Oc2ccc(C(c3ccc(Oc4ccc(-c5nnc(*)n5-c5ccccc5)cc4)cc3)(C(F)(F)F)C(F)(F)F)cc2)cc1 (repeat unit),203.00
3,*Oc1ccc2cc(Oc3ccc(S(=O)(=O)c4ccc(*)cc4)cc3)ccc2c1 (repeat unit),231.00
4,*O[Si](*)(C)CCCCCCOc1ccc(C(=O)Oc2ccc(C(=O)Oc3ccc(C=C(C(=O)OCCCCCCCCC)C(=O)OCCCCCCCCC)cc3)cc2)cc1 (repeat unit),-5.00
5,*CC(*)(C)C(=O)OCCCCCCCCCCOc1ccc(/N=N/c2ccc(OC)cc2)cc1 (repeat unit),62.00
6,*c1ccc2c(c1)C(=O)N(c1cccc(C(=O)Nc3ccc(C(c4ccc(NC(=O)c5cccc(N6C(=O)c7ccc(C(*)(C(F)(F)F)C(F)(F)F)cc7C6=O)c5)cc4)(C(F)(F)F)C(F)(F)F)cc3)c1)C2=O (repeat unit),273.50
7,*/C=C(/*)C(C)(C)C (repeat unit),200.00
8,*c1c(C)cc(Cc2cc(C)c(N3C(=O)c4ccc(Oc5c(C)cc(-c6cc(C)c(Oc7ccc8c(c7)C(=O)N(*)C8=O)c(C)c6)cc5C)cc4C3=O)c(C)c2)cc1C (repeat unit),420.00
9,*Oc1ccc(C2(c3ccc(OC(=O)CCCCCCCCC(*)=O)cc3)c3ccccc3-c3ccccc32)cc1 (repeat unit),151.00
10,*Nc1ccc(C2(c3ccc(NC(=O)c4cccc(C(*)=O)c4)cc3)c3ccccc3-c3ccccc32)cc1 (repeat unit),277.00
11,*c1cccc(S(=O)(=O)NCCCCCCNS(*)(=O)=O)c1 (repeat unit),67.00
12,*c1cc(Br)c(OC(=O)c2ccc(C(=O)Oc3c(Br)cc(C4(*)OC(=O)c5ccccc54)cc3Br)cc2)c(Br)c1 (repeat unit),319.00
13,*c1ccc(C(=O)Oc2ccc(OC(=O)c3ccc(N4C(=O)CC(SCCOCCSC5CC(=O)N(*)C5=O)C4=O)cc3)cc2)cc1 (repeat unit),166.00
14,*=Nc1ccc(C(C)(C)c2ccc(C(C)(C)c3ccc(/N=C4/OC(=O)c5ccc(Oc6ccc7c(c6)C(=O)OC7=*)cc54)cc3)cc2)cc1 (repeat unit),249.00
15,*CC(*)(F)C(=O)OC (repeat unit),142.00
16,*Oc1ccc(CC(NC(=O)CCc2ccc(OC(=O)COCCOCC(*)=O)cc2)C(=O)OCC)cc1 (repeat unit),53.00
17,*Oc1ccc(CC(NC(=O)CCc2ccc(OC(=O)CCCC(*)=O)cc2)C(=O)OCc2ccccc2)cc1 (repeat unit),66.00
18,*Cc1cccc(CNC(=O)C2=C(C(=O)N*)C3C=CC2C3)c1 (repeat unit),291.00
19,*CC(*)(C)c1ccc2ccccc2n1 (repeat unit),193.00
20,*CCCCCCCCCCNC(=O)CCP(C)(=O)CCC(=O)N* (repeat unit),45.50
21,*Cc1c(C)c(C)c(CNC(=O)CCCCCC(C)CC(=O)N*)c(C)c1C (repeat unit),211.00

row,Compound,glass transition temperature [°C]
1,*c1ccc(Cc2ccc(N3C(=O)c4ccc(OCCN(CCOc5ccc6c(c5)C(=O)N(*)C6=O)c5ccc(/C=C/c6ccc([N+](=O)[O-])cc6)cc5)cc4C3=O)cc2)cc1 (repeat unit),160.70
2,*Nc1ccc(Cc2ccc(NC(=O)c3cc(NC(=O)c4ccncc4)cc(C(*)=O)c3)cc2)cc1 (repeat unit),302.00
3,*c1ccc2c(c1)C(=O)N(c1ccc(C(=O)Nc3ccc(Oc4ccc(-c5ccc(Oc6ccc(NC(=O)c7ccc(N8C(=O)c9ccc(C(*)(C(F)(F)F)C(F)(F)F)cc9C8=O)cc7)cc6)cc5)cc4)cc3)cc1)C2=O (repeat unit),296.00
4,*CC(*)(C)C(=O)OCc1ccccc1 (repeat unit) [Poly(benzyl methacrylate)],54.00 ± 0.5
5,*C(=O)Nc1ccc(Oc2ccc(C3(c4ccc(Oc5ccc(NC(=O)c6ccc7c(c6)C(=O)N(c6ccc(C)c(N8C(=O)c9ccc(*)cc9C8=O)c6)C7=O)cc5)cc4)NC(=O)c4ccccc43)cc2)cc1 (repeat unit),315.00
6,*Oc1ccc(-c2ccc(Oc3ccc(-c4ccc(-c5ccc(*)c(C(F)(F)F)c5)cc4)cc3C(F)(F)F)cc2)cc1 (repeat unit),203.50
7,*c1ccc(-c2ccc3nc(Oc4cc(-c5ccccc5)c5cc(*)ccc5n4)cc(-c4ccccc4)c3c2)cc1 (repeat unit),300.00
8,*c1ccc(-c2ccc(-c3cc(-c4ccccc4)c4cc5c(-c6ccccc6)cc(*)nc5cc4n3)cc2)cc1 (repeat unit),392.00
9,*CCCCCCCCOc1c(OC)cc(/C=C/c2ccc(/C=C/c3cc(OC)c(O*)c(OC)c3)cc2)cc1OC (repeat unit),69.40
10,*Oc1ccc(NC(=O)c2cc(C(=O)Nc3ccc(*)cc3)cc(C(F)(F)C(F)(F)C(F)(F)C(F)(F)C(F)(F)C(F)(F)C(F)(F)C(F)(F)F)c2)cc1 (repeat unit),230.00
11,*Nc1cccc(C(=O)c2ccc(NC(=O)c3cccc(C(=O)c4ccc(C(*)=O)cc4)c3)cc2)c1 (repeat unit),215.00
12,*Nc1ccc(CC(C)(C)NC(=O)CCCCC(*)=O)cc1 (repeat unit),130.00
13,*OP(=O)(Oc1ccc(C)cc1)Oc1c(Br)cc(C(c2cc(Br)c(*)c(Br)c2)(C(F)(F)F)C(F)(F)F)cc1Br (repeat unit),146.00
14,*CCCCCOC(=O)c1ccc2cc(C(=O)O*)ccc2c1 (repeat unit),58.50
15,*c1ccc(Oc2ccc(Oc3ccc(N4C(=O)C5CCC6C(=O)N(*)C(=O)C6C5C4=O)cc3)cc2)cc1 (repeat unit),274.00
16,*c1ccc(OCCN(CCOc2ccc(-c3nc4ccc(Oc5ccc6nc(*)c(-c7ccccc7)nc6c5)cc4nc3-c3ccccc3)cc2)c2ccc(/C=C/c3ccc([N+](=O)[O-])cc3)cc2)cc1 (repeat unit),201.00
17,*Oc1ccc(C(C)(C)c2ccc(OC(*)=O)c(C)c2)cc1C (repeat unit),124.00
18,*CCCCCCCCCCOC(=O)Nc1ccc(C)c(NC(=O)O*)c1 (repeat unit),18.00
19,*c1ccc2c(c1)C(=O)N(c1c(C)cc(Cc3cc(C)c(N4C(=O)c5ccc(C(*)(C(F)(F)F)C(F)(F)F)cc5C4=O)c(C(C)C)c3)cc1C(C)C)C2=O (repeat unit),276.00
20,*c1ccc(C(=O)OCCCCCCCCCOC(=O)c2ccc(-c3nnc(*)s3)cc2)cc1 (repeat unit),72.00
21,*CCN(CCOC(=O)Nc1ccc(C)c(NC(=O)O*)c1)c1ccc(/N=N/c2ccc([N+](=O)[O-])cc2C)c(C)c1 (repeat unit),135.00

row,Compound,glass transition temperature [°C]
1,*Oc1ccc(C(c2ccc(Oc3ccc(C(=O)c4c(C(=O)c5ccc(*)cc5)c(-c5ccc(F)cc5)c(-c5ccc(F)cc5)c(-c5ccc(F)cc5)c4-c4ccc(F)cc4)cc3)cc2)(C(F)(F)F)C(F)(F)F)cc1 (repeat unit),253.00
2,*CC(*)Cc1cccc(C)c1 (repeat unit),40.00
3,*Oc1c(OC)cc(-c2cc(OC)c(OC(=O)CCCCCCCCC(*)=O)c(OC)c2)cc1OC (repeat unit),94.00
4,*c1ccc(S(=O)(=O)c2ccc(-n3c(=O)c4cc5c(=O)n(*)c(=O)c5cc4c3=O)cc2)cc1 (repeat unit),350.00
5,*c1ccc2c(c1)C(=O)N(c1cccc(P(=O)(c3ccc(C(F)(F)F)cc3)c3cccc(N4C(=O)c5ccc(C(*)(C(F)(F)F)C(F)(F)F)cc5C4=O)c3)c1)C2=O (repeat unit),260.00
6,*c1ccc(C(c2ccccc2)(c2ccc(-c3nc4ccc(-c5ccc6nc(*)oc6c5)cc4o3)cc2)C(F)(F)F)cc1 (repeat unit),350.00
7,*c1cccc(-c2cccc(C(F)(F)C(F)(F)C(*)(F)F)c2)c1 (repeat unit),45.00
8,*CC(*)(C#N)C(=O)OCCCC (repeat unit),117.00
9,*C(=O)c1ccc(C(=O)N(*)c2ccccc2)c(Sc2ccccc2)c1 (repeat unit),152.00
10,*CC(*)(C)C(=O)OCCOCCOCC1(C)COCCOCCOCCOC1 (repeat unit),10.00
11,*c1cccc(N2C(=O)c3cccc(Oc4ccc(Sc5ccc(Oc6cccc7c6C(=O)N(*)C7=O)cc5)cc4)c3C2=O)c1 (repeat unit),231.00
12,*CCCCCCCCCCCCOc1ccc(C(C)(C)c2ccc(OCOc3ccc(C(C)(C)c4ccc(O*)cc4)cc3)cc2)cc1 (repeat unit),37.00
13,*C(=O)Nc1ccc(Cc2ccc(NC(=O)c3ccc(N4C(=O)c5ccc(*)cc5C4=O)cc3)cc2)cc1 (repeat unit),222.00
14,*CCCCCCCOC(=O)NCCCCCCNC(=O)O* (repeat unit),55.00
15,*c1ccc(Oc2ccccc2Oc2ccc(N3C(=O)c4ccc(-c5ccc6c(c5)C(=O)N(*)C6=O)cc4C3=O)cc2)cc1 (repeat unit),241.00
16,*Oc1ccc(NC(=O)c2cc(C(=O)Nc3ccc(*)cc3)cc(S(=O)(=O)c3ccccc3)c2)cc1 (repeat unit),279.00
17,*C(=O)Nc1ccc(C(=O)c2ccc(NC(=O)c3ccc4c(c3)C(=O)N(c3ccc(NC(=O)Nc5ccc(N6C(=O)c7ccc(*)cc7C6=O)cc5)cc3)C4=O)cc2)cc1 (repeat unit),212.00
18,*CC(O)C(O)CN(*)c1ccc(N(C)C)cc1 (repeat unit),72.00
19,*c1ccc(Oc2ccc(-c3ccc(Oc4ccc(N5C(=O)c6ccc(Oc7cc(C(C)(C)C)c(Oc8ccc9c(c8)C(=O)N(*)C9=O)cc7C(C)(C)C)cc6C5=O)cc4)cc3)cc2)cc1 (repeat unit),262.00
20,*Oc1ccc(CC(NC(=O)Cc2ccc(OC(=O)CCC(*)=O)cc2)C(=O)OCC)cc1 (repeat unit),75.50
